Measured values as given in patent US20160289594A1, “USE OF CNGA2 AGONISTS FOR ENHANCING THE OLFACTORY EFFECT OF AN ODORANT” (Henkel AG & Co. KGaA, priority 2013, published 2016).

System: CNGA2 ion channel
Assay: Experiments with skatole on direct activation of the CNGA2 ion channel
Type: cell-based, human
Conditions: CNGA2 ion channel of all odor receptor cells, in addition to specific odor receptors

## Cc1c[nH]c2ccccc12 [skatole, 3-methylindole]
  Activation of the CNGA2 ion channel: directly activates
